# Measurements: patent publication US8952024B2, “Herbicidal pyrimidone derivatives” (E I du Pont de Nemours and Company, priority 2009, dated 2015)
# Tests used:
# Format in all cases: in vivo
# [1] = test system: cocklebur (Xanthium strumarium); assay: Test B pre-/postemergence plant response
# Procedure, shortened: (§1)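 Visual ratings on a 0–100 scale (100 = complete control) were made versus untreated controls 13–15 days after treatment in a greenhouse. Compounds in surfactant-containing non-phytotoxic solvent were applied preemergence to seeds in loam–sand blend or postemergence to 1- to 4-leaf plants (2–18 cm).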
# [2] = test system: goosegrass (Eleusine indica); assay: Test B pre-/postemergence plant response
# Procedure, shortened: as §1
# [3] = test system: johnsongrass (Sorghum halepense); assay: Test B pre-/postemergence plant response
# Procedure, shortened: as §1
# kochia (Kochia scoparia) = assay: Test B pre-/postemergence plant response
# Procedure, shortened: as §1
# [4] = test system: pigweed (Amaranthus retroflexus); assay: Test B pre-/postemergence plant response
# Procedure, shortened: as §1
# [5] = test system: ragweed (common ragweed, Ambrosia elatior); assay: Test B pre-/postemergence plant response
# Procedure, shortened: as §1
# soybean (Glycine max) = assay: Test B pre-/postemergence plant response
# Procedure, shortened: as §1
# [6] = test system: velvetleaf (Abutilon theophrasti); assay: Test B pre-/postemergence plant response
# Procedure, shortened: as §1
# [7] = test system: wheat (Triticum aestivum); assay: Test B pre-/postemergence plant response
# Procedure, shortened: as §1
# wild oat (Avena fatua) = assay: Test B pre-/postemergence plant response
# Procedure, shortened: as §1
# [8] = test system: canarygrass (Phalaris minor); assay: Test B postemergence plant response
# Procedure, shortened: (§2)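 Plants grown in peat/vermiculite medium were sprayed postemergence at 2–18 cm height (1- to 4-leaf stage). After 13–15 days in the greenhouse, response was rated visually against untreated controls on a 0–100 scale (0 no effect, 100 complete control).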
# [9] = test system: chickweed (Stellaria media); assay: Test B postemergence plant response
# Procedure, shortened: as §2
# [10] = test system: windgrass (Apera spica-venti); assay: Test B postemergence plant response
# Procedure, shortened: as §2
# [11] = 31 g ai/ha, postemergence, scale 0 to 100, 0 is no effect, 100 is complete control
# [12] = 250 g ai/ha, Preemergence, 0 to 100 scale
# [13] = Postemergence, 62 g ai/ha, scale 0 (no effect) to 100 (complete control), 13 to 15 days
# [14] = Postemergence, 125 g ai/ha, visual rating after 13 to 15 days, scale 0 (no effect) to 100 (complete control)
# [15] = Postemergence, 250 g ai/ha, scale 0 to 100 (0 no effect, 100 complete control)
# [16] = Preemergence, 31 g ai/ha, scale 0 to 100 (0 no effect, 100 complete control)
# [17] = Preemergence, 62 g ai/ha, scale 0 to 100 (0 no effect, 100 complete control)
# [18] = Preemergence, 125 g ai/ha, scale 0 to 100, 0 no effect, 100 complete control
structure (smiles),measurement,setting,value
Cc1cc(-n2c(-c3ccccc3)ncc(C(=O)C3=C(O)CCCC3=O)c2=O)ccc1F [Compound 53],"Plant response rating, Cocklebur",[1]; [11],80
same,"Plant response rating, Cocklebur",[1]; [12],70
same,"Plant response rating, Cocklebur",[1]; [13],85
same,"Plant response rating, Cocklebur",[1]; [14],85
same,"Plant response rating, Cocklebur",[1]; [15],90
same,"Plant response rating, Cocklebur",[1]; [16],10
same,"Plant response rating, Cocklebur",[1]; [17],20
same,"Plant response rating, Cocklebur",[1]; [18],65
same,"Plant response rating, Goosegrass",[2]; [11],75
same,"Plant response rating, Goosegrass",[2]; [12],100
same,"Plant response rating, Goosegrass",[2]; [13],80
same,"Plant response rating, Goosegrass",[2]; [14],80
same,"Plant response rating, Goosegrass",[2]; [15],85
same,"Plant response rating, Goosegrass",[2]; [16],98
same,"Plant response rating, Goosegrass",[2]; [17],100
same,"Plant response rating, Goosegrass",[2]; [18],100
same,"Plant response rating, Johnsongrass",[3]; [11],55
same,"Plant response rating, Johnsongrass",[3]; [12],75
same,"Plant response rating, Johnsongrass",[3]; [13],95
same,"Plant response rating, Johnsongrass",[3]; [14],95
same,"Plant response rating, Johnsongrass",[3]; [15],100
same,"Plant response rating, Johnsongrass",[3]; [16],10
same,"Plant response rating, Johnsongrass",[3]; [17],55
same,"Plant response rating, Johnsongrass",[3]; [18],60
same,"Plant response rating, Kochia",kochia (Kochia scoparia); [11],45
same,"Plant response rating, Kochia",kochia (Kochia scoparia); [13],65
same,"Plant response rating, Kochia",kochia (Kochia scoparia); [14],75
same,"Plant response rating, Kochia",kochia (Kochia scoparia); [15],80
same,"Plant response rating, Pigweed",[4]; [11],85
same,"Plant response rating, Pigweed",[4]; [13],95
same,"Plant response rating, Pigweed",[4]; [14],100
same,"Plant response rating, Pigweed",[4]; [15],100
same,"Plant response rating, Pigweed",[4]; [16],95
same,"Plant response rating, Pigweed",[4]; [17],98
same,"Plant response rating, Pigweed",[4]; [18],100
same,"Plant response rating, Ragweed",[5]; [11],80
same,"Plant response rating, Ragweed",[5]; [13],85
same,"Plant response rating, Ragweed",[5]; [14],95
same,"Plant response rating, Ragweed",[5]; [15],98
same,"Plant response rating, Ragweed",[5]; [16],65
same,"Plant response rating, Ragweed",[5]; [17],75
same,"Plant response rating, Ragweed",[5]; [18],85
same,"Plant response rating, Soybean",soybean (Glycine max); [11],90
same,"Plant response rating, Soybean",soybean (Glycine max); [13],95
same,"Plant response rating, Soybean",soybean (Glycine max); [14],95
same,"Plant response rating, Soybean",soybean (Glycine max); [15],95
same,"Plant response rating, Soybean",soybean (Glycine max); [16],0
same,"Plant response rating, Soybean",soybean (Glycine max); [17],70
same,"Plant response rating, Soybean",soybean (Glycine max); [18],80
same,"Plant response rating, Velvetleaf",[6]; [11],85
same,"Plant response rating, Velvetleaf",[6]; [13],85
same,"Plant response rating, Velvetleaf",[6]; [14],95
same,"Plant response rating, Velvetleaf",[6]; [15],98
same,"Plant response rating, Velvetleaf",[6]; [16],80
same,"Plant response rating, Velvetleaf",[6]; [17],98
same,"Plant response rating, Velvetleaf",[6]; [18],98
same,"Plant response rating, Wheat",[7]; [11],20
same,"Plant response rating, Wheat",[7]; [13],25
same,"Plant response rating, Wheat",[7]; [14],30
same,"Plant response rating, Wheat",[7]; [15],50
same,"Plant response rating, Wheat",[7]; [16],0
same,"Plant response rating, Wheat",[7]; [17],0
same,"Plant response rating, Wheat",[7]; [18],0
same,"Plant response rating, Oat, Wild",wild oat (Avena fatua); [11],50
same,"Plant response rating, Oat, Wild",wild oat (Avena fatua); [13],70
same,"Plant response rating, Oat, Wild",wild oat (Avena fatua); [14],85
same,"Plant response rating, Oat, Wild",wild oat (Avena fatua); [15],85
same,"Plant response rating, Oat, Wild",wild oat (Avena fatua); [16],0
same,"Plant response rating, Oat, Wild",wild oat (Avena fatua); [17],0
same,"Plant response rating, Oat, Wild",wild oat (Avena fatua); [18],0
same,"Plant response rating, Canarygrass",[8]; [11],40
same,"Plant response rating, Canarygrass",[8]; [13],80
same,"Plant response rating, Canarygrass",[8]; [14],90
same,"Plant response rating, Canarygrass",[8]; [15],90
same,"Plant response rating, Chickweed",[9]; [11],85
same,"Plant response rating, Chickweed",[9]; [13],98
same,"Plant response rating, Chickweed",[9]; [14],98
same,"Plant response rating, Chickweed",[9]; [15],100
same,"Plant response rating, Windgrass",[10]; [11],60
same,"Plant response rating, Windgrass",[10]; [13],80
same,"Plant response rating, Windgrass",[10]; [14],85
same,"Plant response rating, Windgrass",[10]; [15],95
